Measured values taken from US7071168B2, “Anti-cancer compounds and methods related thereto” (The Regents of the University of Colorado, priority 1998, dated 2006).

Legend:
SCLC strain SHP-77 = test: Colorimetric tetrazolium (MTT) assay for cell survival, SCLC strain SHP-77; format: cell-based, human
Description: (§1) In general, Anti-bradykinin activity was determined by the classical guinea pig ileum assay and on Chinese hamster ovary (CHO) cells expressing cloned human bradykinin B2 receptors. Anti-tumor activity was determined on cultured human cancer cell lines using the standard tetrazolium (MTT) assay.
Cell growth and survival were measured by a rapid colorimetric assay based on the tetrazolium salt MTT (3-(4,5-dimethylthiazol-2-yl)-2,5-diphenyl tetrazolium bromide) (Mosmann, J Immunol. Methods 65: 55–63, 1983, with minor modifications). Briefly, 1,000 normal lung fibroblasts or normal epithelial BEAS-2B cells, 1,000 or 5,000 viable non-SCLC cells or 10,000 viable SCLC cells were plated in 100 μL of growth medium in 96-well flat-bottomed microtiter plates. Cells were incubated overnight to allow recovery. Compounds to be tested were added to the cells in triplicate in a range of concentrations and the cells were incubated at 37° C., 5% CO2, with 100% humidity. Control cells were treated in the same way without antagonists. […] Plates were incubated for 4 days, allowing sufficient time for cell replication and compound-induced cell death to occur. On day 5, 25 μL of a 2 mg/mL solution of MTT (Sigma) dissolved in RMPI-1640was added to each well. The plate was incubated for 4 h at 37° C. The supernate was removed and the blue formazan complex was dissolved by adding 100 μL of 0.02 N HCl in 75% isopropanol to all wells. Absorbance was immediately determined using a scanning multiwell plate reader. B9870 caused 50% cell death at a concentration of 0.15 μM under these conditions.

[1] = tested on: bradykinin response of isolated guinea pig ileum; test: Anti-bradykinin activity on isolated guinea pig ileum; conditions: isolated guinea pig ileum; pD2 of bradykinin is 7.4; higher numbers indicate higher potency
Description: as §1
Male Hartley guinea pigs that had been deprived of food overnight were sacrificed, and sections of terminal ileum, 25 mm in length, were dissected, attached to tissue holders and immersed in 10 ml tissue baths containing Krebs' solution bubbled with 95% O2/5% CO2. Tissues were placed under 1 g tension and incubated for 1 h equilibration. Concentration-effect curves were constructed to bradykinin in the absence and presence of new compounds.

| Molecule | MTT: ED50 for killing of SCLC strain SHP-77 in vitro (SCLC strain SHP-77; SCLC strain SHP-77 in vitro) | GPI: pA2 for bradykinin antagonist activity on isolated guinea pig ileum [1] | MTT: ED50 for killing of SCLC strain SHP-77 in vitro (SCLC strain SHP-77; Table 1, SHP-77, MTT, 4 days) |
| --- | --- | --- | --- |
| O=C(NC1CN2CCC1CC2)C(NC(=NC1CCCCC1)NC1CCCCC1)C1Cc2ccccc2C1 (stereo not shown) [M12] | 20 µM | 5.0 |  |
| O=C(NC1CN2CCC1CC2)C(Cc1ccc2ccccc2c1)NC(=NC1CCCCC1)NC1CCCCC1 (stereo not shown) [M18] | 30 µM | 6.6 |  |
| CC1(C)CC(NC(=O)[C@@H](N)Cc2ccc3ccccc3c2)CC(C)(C)N1 [M218] | Inact | 4.8 |  |
| CC1(C)CC(NC(=O)[C@@H](NC(=NC2CCCCC2)NC2CCCCC2)C2Cc3ccccc3C2)CC(C)(C)N1 [M236] | >50 µM | 4.7 |  |
| CC1(C)CC(NC(=O)[C@H](Cc2c(F)c(F)c(F)c(F)c2F)NC(=NC2CCCCC2)NC2CCCCC2)CC(C)(C)N1 [M240] | 32 µM | 5.1 |  |
| COC(=O)C1(NC(=O)[C@H](Cc2ccc3ccccc3c2)NC(=NC2CCCCC2)NC2CCCCC2)CC(C)(C)NC(C)(C)C1 [M244A] | 12 µM | 5.0 |  |
| CC1(C)CC(NC(=O)[C@H](Cc2ccc3ccccc3c2)NC(=NC2CCCCC2)NC2CCCCC2)(C(=O)O)CC(C)(C)N1 [M244B] | Inact | 4.9 |  |
| CC1(C)CC(NC(=O)[C@@H](Cc2ccc3ccccc3c2)NC(=NC2CCCCC2)NC2CCCCC2)CC(C)(C)N1 [M246] | >50 µM | 5.7 |  |
| CC1(C)CC(NC(=O)[C@H](Cc2ccc3ccccc3c2)NC(=O)C=Cc2c(F)c(F)c(F)c(F)c2F)CC(C)(C)N1 [M248] | 3.2 µM | 6.2 |  |
| CC1(C)CC(NC(=O)[C@H](Cc2ccc3ccccc3c2)NC(=O)C2=CN3CCC2CC3)CC(C)(C)N1 [M252] | Inact | 4.8 |  |
| CC1(C)CC(NC(=O)[C@H](Cc2ccc3ccccc3c2)NC(=N)CCCCCCCCCCCCC(=N)N[C@@H](Cc2ccc3ccccc3c2)C(=O)NC2CC(C)(C)NC(C)(C)C2)CC(C)(C)N1 [M254-1] | 5 µM | 5.1 |  |
| CC1(C)CC(NC(=O)[C@H](Cc2ccc3ccccc3c2)NC(=N)CCCCCCCCCCCCC(=N)N[C@@H](Cc2ccc3ccccc3c2)C(=O)NC2CC(C)(C)NC(C)(C)C2)CC(C)(C)N1 [M254-2] | 5 µM | 5.8 |  |
| CC1(C)CC(NC(=O)[C@H](Cc2ccc3ccccc3c2)NC(=N)CCCCCCCCCCCCC(=N)N[C@@H](Cc2ccc3ccccc3c2)C(=O)NC2CC(C)(C)NC(C)(C)C2)CC(C)(C)N1 [M254] | 5 µM | 5.1 |  |
| CC1(C)CC(NC(=O)[C@@H](Cc2ccc3ccccc3c2)NC(=NC2CCCCC2)NC2CCCCC2)CC(C)(C)N1 [M262] | 6 µM | 5.3 |  |
| CC1(C)CC(NC(=O)[C@H](Cc2c[nH]c3ccccc23)NC(=NC2CCCCC2)NC2CCCCC2)CC(C)(C)N1 [M264] | 16 µM | 4.7 |  |
| CC1(C)CC(NC(=O)Cc2ccc(NC(=NC3CCCCC3)NC3CCCCC3)cc2)CC(C)(C)N1 [M266] | 42 µM | 4.8 |  |
| CC1(C)C=C(C(=O)NCCNC(=O)C(Cc2ccc3ccccc3c2)NC(=O)C=Cc2c(F)c(F)c(F)c(F)c2F)C(C)(C)N1 (stereo not shown) [M268] | 10 µM | 5.2 |  |
| CC1(C)CC(NC(=O)C(Cc2cccc3ccccc23)NC(=O)C(Cc2cnc[nH]2)NC(=O)CCCCCCCCCCC(=O)NC(Cc2cnc[nH]2)C(=O)NC(Cc2cccc3ccccc23)C(=O)NC2CC(C)(C)NC(C)(C)C2)CC(C)(C)N1 (stereo not shown) [M660] | 30 µM |  |  |
| CN(C)c1ccc(CNC(=O)C(Cc2ccc(OCc3c(Cl)cccc3Cl)cc2)NC(=O)C=Cc2c(F)c(F)c(F)c(F)c2F)cc1 (stereo not shown) [M798] | 37 µM |  |  |
| CC1(C)CC(NC(=O)C(Cc2ccc(OCc3c(Cl)cccc3Cl)cc2)NC(=O)CN(CCN(CC(=O)NC(Cc2ccc(OCc3c(Cl)cccc3Cl)cc2)C(=O)NC2CC(C)(C)NC(C)(C)C2)CC(=O)NC(Cc2ccc(OCc3c(Cl)cccc3Cl)cc2)C(=O)NC2CC(C)(C)NC(C)(C)C2)CC(=O)NC(Cc2ccc(OCc3c(Cl)cccc3Cl)cc2)C(=O)NC2CC(C)(C)NC(C)(C)C2)CC(C)(C)N1 (stereo not shown) [M1040, EDTA-(OC2Y-ATMP)4] | 0.73 µM |  |  |
| Aaa-DArg-Arg-Aud-Ser-D5F5-Oic-Arg [M956] |  |  | 14 µM |
| Aaa-DArg-Arg-Eac-Ser-D5F5-Oic-Arg [M954] |  |  | 10 µM |
| Aaa-Pac-hPhe-Arg [M752-6] |  |  | Inact |
| Aaa-Ser-Pac-hPhe-Arg [M752-5] |  |  | Inact |
| Ac-OC2Y-Arg [M784] |  |  | Inact |
| Aca-DArg-Arg-Aud-Ser-D5F5-Oic-Arg [M960] |  |  | 21 µM |
| Cin-hPhe-Arg [M706] |  |  | Inact |
| DArg-Arg-Aud-DIgl-PFF-Arg [M844] |  |  | 12 µM |
| DDD-(DArg-Arg-Aud-DIgl-hPhe-Arg)2 [M786] |  |  | 3.2 µM |
